The target in assay [1] is T1, Slo3 (potassium channel subfamily U member 1, KCNU1) (Homo sapiens, UniProt A8MYU2).
T1 sequence (A8MYU2 1-1149): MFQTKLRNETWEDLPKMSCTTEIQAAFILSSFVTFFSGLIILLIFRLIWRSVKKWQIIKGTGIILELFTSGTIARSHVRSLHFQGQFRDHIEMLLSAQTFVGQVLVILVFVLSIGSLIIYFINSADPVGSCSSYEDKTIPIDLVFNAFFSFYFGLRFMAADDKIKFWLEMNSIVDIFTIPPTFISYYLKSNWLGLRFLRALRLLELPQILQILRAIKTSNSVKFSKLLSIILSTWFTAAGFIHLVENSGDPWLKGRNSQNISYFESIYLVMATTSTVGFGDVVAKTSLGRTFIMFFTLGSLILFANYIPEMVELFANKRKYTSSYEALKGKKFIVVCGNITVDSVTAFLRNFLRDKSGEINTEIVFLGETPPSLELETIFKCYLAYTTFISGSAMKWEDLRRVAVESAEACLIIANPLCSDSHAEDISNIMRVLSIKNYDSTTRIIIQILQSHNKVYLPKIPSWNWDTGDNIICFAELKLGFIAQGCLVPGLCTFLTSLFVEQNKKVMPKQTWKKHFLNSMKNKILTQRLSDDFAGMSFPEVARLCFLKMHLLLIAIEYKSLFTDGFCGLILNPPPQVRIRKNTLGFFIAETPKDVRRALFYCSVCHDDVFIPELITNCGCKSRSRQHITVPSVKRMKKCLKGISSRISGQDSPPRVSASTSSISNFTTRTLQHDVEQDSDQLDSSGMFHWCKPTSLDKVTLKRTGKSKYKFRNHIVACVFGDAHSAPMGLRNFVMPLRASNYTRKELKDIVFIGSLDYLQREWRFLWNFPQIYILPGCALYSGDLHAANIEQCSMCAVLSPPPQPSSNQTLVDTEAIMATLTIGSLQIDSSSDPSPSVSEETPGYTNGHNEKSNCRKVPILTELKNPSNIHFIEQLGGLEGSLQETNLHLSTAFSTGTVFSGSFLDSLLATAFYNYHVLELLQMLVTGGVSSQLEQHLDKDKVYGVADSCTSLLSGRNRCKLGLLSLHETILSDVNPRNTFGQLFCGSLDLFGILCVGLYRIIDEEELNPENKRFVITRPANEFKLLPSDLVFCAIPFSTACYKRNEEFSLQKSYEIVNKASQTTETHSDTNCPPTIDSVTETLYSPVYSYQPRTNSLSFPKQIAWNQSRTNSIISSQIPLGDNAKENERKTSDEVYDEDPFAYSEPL
T1 sequence (Q8N7C0 24-313 partner): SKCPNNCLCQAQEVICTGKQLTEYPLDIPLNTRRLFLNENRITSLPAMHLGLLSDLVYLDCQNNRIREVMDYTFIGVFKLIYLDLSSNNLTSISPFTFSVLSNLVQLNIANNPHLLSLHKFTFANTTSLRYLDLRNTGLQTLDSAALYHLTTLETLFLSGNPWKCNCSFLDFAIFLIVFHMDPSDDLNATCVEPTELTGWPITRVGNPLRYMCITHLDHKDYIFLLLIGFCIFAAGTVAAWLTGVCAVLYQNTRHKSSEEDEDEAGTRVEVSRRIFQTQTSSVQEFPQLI
As to the kind of experiment: whole-cell patch clamp, HEK293 cells, dose response. Type of assay: cell-based.

For assay [2], the target named is T1, Slo3 (potassium channel subfamily U member 1, KCNU1). As to the kind of experiment: whole-cell patch clamp, HEK293 cells, […] single dose. Type of assay: cell-based. To be noted: HEK293, read-out: % inhibition at 50 μM.

Each structure is given as a SMILES string.

In assay [1], `O=c1c(O)c(-c2ccc(O)c(O)c2)oc2cc(O)cc(O)c12` [quercetin] had an EC50 of 11.3 µM. Regarding `O=c1cc(-c2ccc(O)c(O)c2)oc2cc(O)cc(O)c12` [luteolin], the inhibition at 50 µM in assay [2] was 53.5 ± 3.15%.

As to `O=c1c(O)c(-c2ccc(O)cc2O)oc2cc(O)cc(O)c12` [morin], the inhibition at 50 µM in assay [2] amounted to 42.1 ± 2.16%.

The values are drawn from article PMC6717788 (The Korean Journal of Physiology & Pharmacology : …, 2019).
